# Results published in patent US9969687B2, “Compounds useful as CCR9 modulators” (Norgine B.V., priority 2013, dated 2018).
# Assays:
# [1] = biological target: T1, CCR9 (Homo sapiens (Human), UniProt P51686); test: FLIPR calcium flux assay using hCCR9 over expressed cells (Chem1-hCCR9), TECK stimulation; format: cell-based; details: Chem1-hCCR9 overexpressing cells
# Protocol: Biological Activity: FLIPR Assay Using hCCR9 Over Expressed Cells
# A calcium flux assay was used to determine the ability of the compounds to interfere with the binding between CCR9 and its chemokine ligand (TECK) in Chem1-hCCR9 overexpressing cells. hCCR9 overexpressing cells were seeded (25,000 cells/well) into black Poly-D-Lysine coated clear bottom 96-well plates (BD Biosciences, Cat #356640) and incubated overnight at 37° C./5% CO2 in a humidified incubator. Media was aspirated and cells washed twice with 100 μL assay buffer (1×HBSS, 20 mM HEPES) containing 2.5 mM Probenecid. A 0.3× Fluo-4 NW calcium dye was prepared in assay buffer containing 5 mM Probenecid and stored in the dark. Each well was loaded with 100 μL of 0.3× Fluo-4 NW calcium dye and incubated at 37° C./5% CO2 for 60 minutes and then at room temperature for 30 minutes. A half-log serially diluted concentration response curve was prepared at a 3× final assay concentration for each compound (10 μM-0.1 nM final assay concentration) and 50 μL of the compound then transferred to the cells (150 μL final volume) for 60 minutes prior to stimulation (30 minutes at 37° C./5% CO2 and 30 minutes at room temperature). TECK was diluted to 4× its EC80 in assay buffer (containing 0.1% [w/v] bovine serum albumin [BSA]) and 50 μL dispensed through the fluorometric imaging plate reader (FLIPR) instrument to stimulate the cells (200 μL final volume). The increase in intracellular calcium levels was measured with the FLIPR instrument. The potency of the compound as a CCR9 antagonist was calculated as an IC50 using GraphPad Prism software (variable slope four parameter). The Ki of the compound was determined from the IC50 values using the following equation. IC50/1+(Agonist (TECK) conc. used in assay/EC50 of agonist (TECK) generated on day of experiment) Ki calculation: […]
# [2] = biological target: T1, CCR9; test: FLIPR calcium flux assay using MOLT4 cells, TECK stimulation; format: cell-based; details: MOLT4 cells (human T-cell line)
# Protocol: Biological Activity: FLIPR Assay Using MOLT4 Cells
# A calcium flux assay was used to determine the ability of the compounds to interfere with the binding between CCR9 and its chemokine ligand (TECK) in MOLT4 cells (a human T-cell line). MOLT4 cells were seeded (100,000 cells/well) in corning cell culture plates (Cat #3603) in assay buffer (1×HBSS, 20 mM HEPES) containing 2.5 mM Probenecid. The plate was centrifuged at 1200 rpm for 3 minutes and incubated at 37° C./5% CO2 for 2 hours. A 0.3× Fluo-4 NW calcium dye was prepared in assay buffer containing 5 mM Probenecid and stored in the dark. Each well was loaded with 25 μl of 0.3× Fluo-4 NW calcium dye and incubated at 37° C./5% CO2 for 60 minutes and then at room temperature for 30 minutes. A half-log serially diluted concentration response curve was prepared at a 4× concentration for each (10 μM-0.1 nM final assay concentration) and 25 μL of the compound then transferred to the cells (100 μL final volume) for 60 minutes prior to stimulation (30 minutes at 37° C./5% CO2 and 30 minutes at room temperature). […] The increased in intracellular calcium levels was measured with the FLIPR instrument. The potency of the compound as CCR9 antagonist was calculated as an IC50 using GraphPad Prism software (variable slope four parameter). The Ki of the compound was determined from the IC50 values using the following equation. IC50/1+(Agonist (TECK) conc. used in assay/EC50 of agonist (TECK) generated on day of experiment) Ki calculation: […]
# T1 sequence (P51686 whole entry): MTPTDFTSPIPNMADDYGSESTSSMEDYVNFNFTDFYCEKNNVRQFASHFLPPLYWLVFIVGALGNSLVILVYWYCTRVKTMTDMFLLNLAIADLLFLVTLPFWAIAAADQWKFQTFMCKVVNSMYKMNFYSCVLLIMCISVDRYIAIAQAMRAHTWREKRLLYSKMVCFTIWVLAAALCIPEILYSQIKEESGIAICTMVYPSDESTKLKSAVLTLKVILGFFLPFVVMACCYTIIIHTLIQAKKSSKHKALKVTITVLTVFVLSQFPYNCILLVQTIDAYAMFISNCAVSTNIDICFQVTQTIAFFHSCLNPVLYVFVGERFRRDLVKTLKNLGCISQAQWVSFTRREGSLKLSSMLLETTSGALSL
Compound,Ki [1] [nM],Ki [2] [nM]
Cc1ccncc1N1C(=O)c2c(Cl)ccc(NS(=O)(=O)c3ccc(C(C)(C)C)cc3)c2C1=O [Compound 185],23,7
Cc1cc[n+]([O-])cc1N1C(=O)c2c(Cl)ccc(NS(=O)(=O)c3ccc(C(C)(C)C)cc3)c2C1=O [Compound 188],89,15
COc1cc[n+]([O-])cc1N1C(=O)c2c(Cl)ccc(NS(=O)(=O)c3ccc(C(C)(C)C)cc3)c2C1=O [Compound 189],34,8
COc1cc(C#N)cc(N2C(=O)c3c(Cl)ccc(NS(=O)(=O)c4ccc(C(C)(C)C)cc4)c3C2=O)c1 [Compound 190],81,24
CC(C)(C)c1ccc(S(=O)(=O)Nc2ccc(Cl)c3c2C(=O)N(Cc2ccccn2)C3=O)cc1 [Compound 191],33,20
Cn1cncc1N1C(=O)c2c(Cl)ccc(NS(=O)(=O)c3ccc(C(C)(C)C)cc3)c2C1=O [Compound 192],12,4
Cn1ccc(CN2C(=O)c3c(Cl)ccc(NS(=O)(=O)c4ccc(C(C)(C)C)cc4)c3C2=O)n1 [Compound 193],21,16
COc1c(N2C(=O)c3c(Cl)ccc(NS(=O)(=O)c4ccc(C(C)(C)C)cc4)c3C2=O)ccc[n+]1[O-] [Compound 194],6,4
CC(C)(C)c1ccc(S(=O)(=O)Nc2ccc(Cl)c3c2C(=O)N(Cc2cncc(C#N)c2)C3=O)cc1 [Compound 195],42,31
CC(Cc1cccnc1)N1C(=O)c2c(Cl)ccc(NS(=O)(=O)c3ccc(C(C)(C)C)cc3)c2C1=O (centres unmarked) [Compound 196],103,46
CCOc1cc(N2C(=O)c3c(Cl)ccc(NS(=O)(=O)c4ccc(C(C)(C)C)cc4)c3C2=O)c[n+]([O-])c1 [Compound 197],40,21
CC(C)(C)c1ccc(S(=O)(=O)Nc2ccc(Cl)c3c2C(=O)N(Cc2cccc[n+]2[O-])C3=O)cc1 [Compound 199],10,6
CC(C)(C)c1ccc(S(=O)(=O)Nc2ccc(Cl)c3c2C(=O)N(c2cc(C#N)ccn2)C3=O)cc1 [Compound 200],92,45
CC(C)(C)c1ccc(S(=O)(=O)Nc2ccc(Cl)c3c2C(=O)N(Cc2ccncc2)C3=O)cc1 [Compound 201],17,8
COc1cccnc1N1C(=O)c2c(Cl)ccc(NS(=O)(=O)c3ccc(C(C)(C)C)cc3)c2C1=O [Compound 202],49,22
CC(C)(C)c1ccc(S(=O)(=O)Nc2ccc(Cl)c3c2C(=O)N(c2cccnn2)C3=O)cc1 [Compound 203],59,38
CC(C)(C)c1ccc(S(=O)(=O)Nc2ccc(Cl)c3c2C(=O)N(Cc2ncccn2)C3=O)cc1 [Compound 204],30,7
CC(C)(C)c1ccc(S(=O)(=O)Nc2ccc(Cl)c3c2C(=O)N(c2cccc(C#N)n2)C3=O)cc1 [Compound 207],36,30
Cc1ccncc1CN1C(=O)c2c(Cl)ccc(NS(=O)(=O)c3ccc(C(C)(C)C)cc3)c2C1=O [Compound 208],16,24
CC(C)(C)c1ccc(S(=O)(=O)Nc2ccc(Cl)c3c2C(=O)N(Cc2cc[n+]([O-])cc2)C3=O)cc1 [Compound 209],77,30
COc1ccc[n+]([O-])c1N1C(=O)c2c(Cl)ccc(NS(=O)(=O)c3ccc(C(C)(C)C)cc3)c2C1=O [Compound 211],61,33
COc1cncc(CN2C(=O)c3c(Cl)ccc(NS(=O)(=O)c4ccc(C(C)(C)C)cc4)c3C2=O)c1 [Compound 212],60,59
Cc1cc[n+]([O-])cc1CN1C(=O)c2c(Cl)ccc(NS(=O)(=O)c3ccc(C(C)(C)C)cc3)c2C1=O [Compound 213],23,12

Compound,Ki [1] [nM],Ki [2] [nM]
Cc1cc(N2C(=O)c3c(Cl)ccc(NS(=O)(=O)c4ccc(C(C)(C)C)cc4)c3C2=O)c[n+]([O-])c1 [Compound 214],53,20
Cc1ccnc(N2C(=O)c3c(Cl)ccc(NS(=O)(=O)c4ccc(C(C)(C)C)cc4)c3C2=O)n1 [Compound 216],49,23
Cc1cnc(N2C(=O)c3c(Cl)ccc(NS(=O)(=O)c4ccc(C(C)(C)C)cc4)c3C2=O)s1 [Compound 217],39,35
CC(C)(C)c1ccc(S(=O)(=O)Nc2ccc(Cl)c3c2C(=O)N(c2cccnc2F)C3=O)cc1 [Compound 218],26,7
CC(C)(C)c1ccc(S(=O)(=O)Nc2ccc(Cl)c3c2C(=O)N(c2ccc(F)cn2)C3=O)cc1 [Compound 219],30,10
Cc1cncc(N2C(=O)c3c(Cl)ccc(NS(=O)(=O)c4ccc(C(C)(C)C)cc4)c3C2=O)n1 [Compound 220],42,12
CC(C)(C)c1ccc(S(=O)(=O)Nc2ccc(Cl)c3c2C(=O)N(c2ccccn2)C3=O)cc1 [Compound 222],12,6
Cc1ccc(N2C(=O)c3c(Cl)ccc(NS(=O)(=O)c4ccc(C(C)(C)C)cc4)c3C2=O)c(C)n1 [Compound 224],6,5
Cc1ccnc(N2C(=O)c3c(Cl)ccc(NS(=O)(=O)c4ccc(C(C)(C)C)cc4)c3C2=O)c1 [Compound 225],51,54
Cc1ccc(N2C(=O)c3c(Cl)ccc(NS(=O)(=O)c4ccc(C(C)(C)C)cc4)c3C2=O)nc1 [Compound 226],23,21
Cc1ccc(N2C(=O)c3c(Cl)ccc(NS(=O)(=O)c4ccc(C(C)(C)C)cc4)c3C2=O)c(C)[n+]1[O-] [Compound 227],32,14
Cc1cccc(N2C(=O)c3c(Cl)ccc(NS(=O)(=O)c4ccc(C(C)(C)C)cc4)c3C2=O)n1 [Compound 228],6,5
Cc1ccc(N2C(=O)c3c(Cl)ccc(NS(=O)(=O)c4ccc(C(C)(C)C)cc4)c3C2=O)[n+]([O-])c1 [Compound 229],63,46
COc1ccc(N2C(=O)c3c(Cl)ccc(NS(=O)(=O)c4ccc(C(C)(C)C)cc4)c3C2=O)c(OC)n1 [Compound 230],6,8
COc1cc(CN2C(=O)c3c(Cl)ccc(NS(=O)(=O)c4ccc(C(C)(C)C)cc4)c3C2=O)c[n+]([O-])c1 [Compound 231],89,50
CC(C)(C)c1ccc(S(=O)(=O)Nc2ccc(Cl)c3c2C(=O)N(c2ccsc2C#N)C3=O)cc1 [Compound 232],3,7
Cc1cccc(N2C(=O)c3c(Cl)ccc(NS(=O)(=O)c4ccc(C(C)(C)C)cc4)c3C2=O)[n+]1[O-] [Compound 233],21,19
Cn1nnc(N2C(=O)c3c(Cl)ccc(NS(=O)(=O)c4ccc(C(C)(C)C)cc4)c3C2=O)n1 [Compound 234],43,45
COc1ccc(CN2C(=O)c3c(Cl)ccc(NS(=O)(=O)c4ccc(C(C)(C)C)cc4)c3C2=O)cn1 [Compound 235],94,123
Cc1ccc(N2C(=O)c3c(Cl)ccc(NS(=O)(=O)c4ccc(C(C)(C)C)cc4)c3C2=O)nn1 [Compound 236],32,51
COc1nccc(C)c1N1C(=O)c2c(Cl)ccc(NS(=O)(=O)c3ccc(C(C)(C)C)cc3)c2C1=O [Compound 237],9,28
COc1ccc(N2C(=O)c3c(Cl)ccc(NS(=O)(=O)c4ccc(C(C)(C)C)cc4)c3C2=O)c(C)n1 [Compound 238],13,14
CC(C)(C)c1ccc(S(=O)(=O)Nc2ccc(Cl)c3c2C(=O)N(Cc2ncccc2F)C3=O)cc1 [Compound 239],23,13
